Test results: USH1942H, “Herbicidal 3-(pyrazolylphenyl)propanoic acids and derivatives” (FMC Corporation, priority 1998, dated 2001)

Assays:
[1] = test system: Cocklebur; test: post-emergence herbicidal activity, cocklebur; type: in vivo, Xanthium strumarium L.; settings: postemergence, 1.0 kg/ha
[2] = test system: Blackgrass; test: post-emergence herbicidal activity, blackgrass; type: in vivo, Aloepecurus myosuroides; settings: postemergence, 1.0 kg/ha
[3] = test system: Green foxtail; test: pre-emergence herbicidal activity, green foxtail; type: in vivo, Setaria viridis; settings: preemergence, 1.0 kg/ha
Excerpt: (§1) The test plants included soybean (Glycine max var. Winchester), field corn (Zea mays var. Pioneer 3732), wheat (Triticum aestivum var. Lew), morning glory (Ipomea lacunosa or Ipomea hederacea), velvetleaf (Abutilon theophrasti), green foxtail (Setaria viridis), Johnsongrass (Sorghum halepense), blackgrass (Aloepecurus myosuroides), common chickweed (Stellaria media), and common cocklebur (Xanthium strumarium L.).
(§2) For pre-emergence testing, two disposable fiber flats (8 cm×15 cm×25 cm) for each rate of application of each candidate herbicide were filled to an approximate depth of 6.5 cm with steam-sterilized sandy loam soil. The soil was leveled and impressed with a template to provide five evenly spaced furrows 13 cm long and 0.5 cm deep in each flat. Seeds of soybean, wheat, corn, green foxtail, and johnsongrass were planted in the furrows of the first flat, and seeds of velvetleaf, morningglory, common chickweed, cocklebur, and blackgrass were planted in the furrows of the second flat. […]
(§3) The pre-emergence flats were initially subjected to a light water spray. […] After 12-17 days, the plants were examined, and the phytotoxicity data were recorded. […]
(§4) Phytotoxicity data are taken as percent control. Percent control is determined by a method similar to the 0 to 100 rating system disclosed in "Research Methods in Weed Science," 2nd ed., B. Truelove, Ed. […]

[4] = test system: Velvetleaf; test: pre-emergence herbicidal activity, velvetleaf; type: in vivo, Abutilon theophrasti; settings: preemergence, 1.0 kg/ha
Excerpt: as §1, §2, §3, §4

[5] = test system: Wheat; test: pre-emergence herbicidal activity, wheat; type: in vivo, Triticum aestivum var. Lew; settings: preemergence, 1.0 kg/ha
Excerpt: as §1, §2, §3, §4

[6] = test system: Wheat; test: post-emergence herbicidal activity, wheat; type: in vivo, Triticum aestivum var. Lew; settings: postemergence, 1.0 kg/ha
[7] = test system: Johnsongrass; test: post-emergence herbicidal activity, johnsongrass; type: in vivo, Sorghum halepense; settings: postemergence, 1.0 kg/ha
[8] = test system: Blackgrass; test: pre-emergence herbicidal activity, blackgrass; type: in vivo, Aloepecurus myosuroides; settings: preemergence, 1.0 kg/ha
Excerpt: as §1, §2, §3, §4

[9] = test system: Cocklebur; test: pre-emergence herbicidal activity, cocklebur; type: in vivo, Xanthium strumarium L.; settings: preemergence, 1.0 kg/ha
Excerpt: as §1, §2, §3, §4

[10] = test system: Corn; test: pre-emergence herbicidal activity, corn; type: in vivo, Zea mays var. Pioneer 3732; settings: preemergence, 1.0 kg/ha
Excerpt: as §1, §2, §3, §4

[11] = test system: Johnsongrass; test: pre-emergence herbicidal activity, johnsongrass; type: in vivo, Sorghum halepense; settings: preemergence, 1.0 kg/ha
Excerpt: as §1, §2, §3, §4

[12] = test system: Morningglory; test: pre-emergence herbicidal activity, morningglory; type: in vivo, Ipomea lacunosa or Ipomea hederacea; settings: preemergence, 1.0 kg/ha
Excerpt: as §1, §2, §3, §4

[13] = test system: Chickweed; test: post-emergence herbicidal activity, chickweed; type: in vivo, Stellaria media; settings: postemergence, 1.0 kg/ha
[14] = test system: Corn; test: post-emergence herbicidal activity, corn; type: in vivo, Zea mays var. Pioneer 3732; settings: postemergence, 1.0 kg/ha
[15] = test system: Soybean; test: post-emergence herbicidal activity, soybean; type: in vivo, Glycine max var. Winchester; settings: postemergence, 1.0 kg/ha
[16] = test system: Chickweed; test: pre-emergence herbicidal activity, chickweed; type: in vivo, Stellaria media; settings: preemergence, 1.0 kg/ha
Excerpt: as §1, §2, §3, §4

[17] = test system: Soybean; test: pre-emergence herbicidal activity, soybean; type: in vivo, Glycine max var. Winchester; settings: preemergence, 1.0 kg/ha
Excerpt: as §1, §2, §3, §4

[18] = test system: Green foxtail; test: post-emergence herbicidal activity, green foxtail; type: in vivo, Setaria viridis; settings: postemergence, 1.0 kg/ha

CCOC(=O)C(Cl)Cc1cc(-c2nn(C)c(OC(F)F)c2Cl)c(Cl)cc1Cl (stereo not drawn) [Compound 1]
% CONTROL [1]: 100% | % CONTROL [2]: 40% | % CONTROL [3]: 100% | % CONTROL [4]: 100% | % CONTROL [5]: 20% | % CONTROL [6]: 30% | % CONTROL [7]: 100% | % CONTROL [8]: 40% | % CONTROL [9]: 100% | % CONTROL [10]: 40% | % CONTROL [11]: 80% | % CONTROL [12]: 100% | % CONTROL [13]: 100% | % CONTROL [14]: 60% | % CONTROL [15]: 100% | % CONTROL [16]: 100% | % CONTROL [17]: 100% | % CONTROL [18]: 100%

CCOC(=O)C(Cl)Cc1cc(-c2nn(C)c(OC(F)F)c2Cl)c(F)cc1Cl (stereo not drawn) [Compound 2, Ethyl 2-chloro-3-[2-chloro-4-fluoro-5-(4-chloro-5-difluoromethoxy-1-methylpyrazol-3-yl)phenyl]propanoate]
% CONTROL [1]: 100% | % CONTROL [2]: 60% | % CONTROL [3]: 100% | % CONTROL [4]: 100% | % CONTROL [5]: 30% | % CONTROL [6]: 55% | % CONTROL [7]: 90% | % CONTROL [8]: 50% | % CONTROL [9]: 100% | % CONTROL [10]: 10% | % CONTROL [11]: 70% | % CONTROL [12]: 100% | % CONTROL [13]: 100% | % CONTROL [14]: 90% | % CONTROL [15]: 100% | % CONTROL [16]: 100% | % CONTROL [17]: 90% | % CONTROL [18]: 100%
